# Patent US20080038359A1, “Stable Nanoparticle Formulations” (SANOFI-AVENTIS U.S. LLC, priority 2005, published 2008)
# Assays:
# [1] = generally known; cited from earlier work
# [2] = Solubility of Compound B in soy oil, estimated visually; assay type: physicochemical; settings: oil or lipid, thermodynamic from solid; visual estimate by gradual addition of soy oil
# Experimental: The solubility of Compound B in soy oil was initially estimated visually by gradual addition of soy oil to a weighed amount of the drug substance until the oil was almost clear (visually). An estimate of the drug substance in oil was calculated from the total amount of oil added.
solubility [2],Compound,solubility in oils [1]
,"CCCCc1oc2ccc(C(=O)OC(C)C)cc2c1C(=O)c1ccc(CCCN(CCCC)CCCC)cc1.O=C(O)/C=C/C(=O)O [Compound C, Isopropyl 2-butyl-3-[4-[3-(dibutylamino)propyl]benzoyl]-1-benzofuran-5-carboxylate fumarate]",low solubility
< 1000 µg/mL,"Cn1c2ccc(F)cc2c2c(C(=O)N3CCCC3)cn(-c3ccccc3)c(=O)c21 [Compound B, 6-Fluoro-9-methyl-2-phenyl-4-(pyrrolidin-1-ylcarbonyl)-2,9-dihydro-1H-pyrido[3,4-b]indol-1-one]",
